Assay results reported in patent publication US9201014B2, “Development of photostable near-IR cyanine dyes for in vivo imaging” (National University of Singapore, priority 2010, dated 2015).

How the values were obtained:
[1] = Absorbance and fluorescence maximum wavelengths and quantum yields of the CyNA library; format: physicochemical; details: for λabs, absorbance maximum wavelength / λem, fluorescence maximum wavelength: CyNA library; for φ, quantum yield: in DMSO, Cardiogreen as standard
Procedure: Since the k values of the different CyNA compounds indicated some dependency on the chemical structure of the amine, the CyNA scaffold was derivatized with a broad range of primary amines (FIGS. 4A-4C). The fluorescence properties of the 80-member CyNA library were measured. The absorption maximum wavelengths ranged from 802 nm to 806 nm, emission maximum wavelengths ranged from 817 nm to 823 nm, and the average quantum yield was approximately 0.10 (Table 2).
All the chemicals (building block amines plus others) and solvents were purchased from Sigma Aldrich, Alfa Aesar, Fluka, MERCK or Acros, and used without further purification. ^1H-NMR and ^13C-NMR spectra were recorded on Bruker Avance 300 NMR and 500 NMR spectrometers, and chemical shifts are expressed in parts per million (ppm). High-resolution mass spectrometry (HRMS) data was recorded on a Micromass VG 7035. Photobleaching experiments were performed using a UVP Blak-Ray® B-100AP high intensity UV lamp (100 W, 365 nm) Spectroscopic and quantum yield data were measured on a SpectraMax M2 spectrophotometer (Molecular Devices), and the data analysis was performed using GraphPrism 5.0. Photobleaching measurements were performed using an Eclipse Ti-U Nikon microscope (filter cube: 750/800) attached to Ti:sappire oscillator that operated in continuous wave mode, and the data was processed using the software NIS-Elements 3.10. In vivo images were taken in an IVIS Spectrum imaging system (Caliper Life Sciences).

[2] = Primary screening of photostability of the CyNA library (time-course fluorescence, 8 h); format: physicochemical; set-up: F/Fo, fluorescent intensity at 8 hours vs 0 hours: unit: %; details: 10 μM in HEPES 100 mM pH 7.4, 2% DMSO
Procedure: As a primary evaluation of photo stability, the decrease in fluorescence intensity of the 80 CyNA compounds was measured (see Table 2). The average decrease in fluorescence intensity after 8 hours of irradiation by a xenon lamp was approximately 18%. A subset of the most photostable compounds (i.e., F/Fo reported in Table 2 was greater than or equal to 95) was examined under stronger irradiation in various buffers.
10-μM CyNA solutions in 100 mM HEPES buffer (pH 7.4) containing 2% DMSO were placed in a 96-well black plate, and fluorescence intensity measurements were recorded every 10 minutes for a total period of 8 hours (excitation-emission: 790-820 nm). A subset of fourteen compounds selected according to their F8h/Fo quotients, quantum yields and maximum relative fluorescence units (RFU) values was further evaluated in a secondary screening

Compound | λabs, absorbance maximum wavelength [1] [nm] | λem, fluorescence maximum wavelength [1] [nm] | φ, quantum yield [1] | F/Fo, fluorescent intensity at 8 hours vs 0 hours [2] | max RFU, maximum relative fluorescence units [2]
CCCN1/C(=C/C=C2\CCCC(/C=C/C3=[N+](CCC)c4ccccc4C3(C)C)=C2N(CCCN2CCCC2=O)C(C)=O)C(C)(C)c2ccccc21 [CyNA-11] | 802 | 820 | 0.11 | 90 | 1250.1
CCCCCCCCCCCCCCN(C(C)=O)C1=C(/C=C/C2=[N+](CCC)c3ccccc3C2(C)C)CCC/C1=C\C=C1\N(CCC)c2ccccc2C1(C)C [CyNA-28] | 804 | 818 | 0.05 | 87 | 23.9
CCCN1/C(=C/C=C2\CCCC(/C=C/C3=[N+](CCC)c4ccccc4C3(C)C)=C2N(Cc2ccc3c(c2)OCO3)C(C)=O)C(C)(C)c2ccccc21 [CyNA-49] | 804 | 818 | 0.10 | 95 | 851.3
CCCCCCCCCCCCCN(C(C)=O)C1=C(/C=C/C2=[N+](CCC)c3ccccc3C2(C)C)CCC/C1=C\C=C1\N(CCC)c2ccccc2C1(C)C [CyNA-55] | 804 | 819 | 0.13 | 100 | 162.3
CCCN1/C(=C/C=C2\CCCC(/C=C/C3=[N+](CCC)c4ccccc4C3(C)C)=C2N(Cc2c(F)cccc2F)C(C)=O)C(C)(C)c2ccccc21 [CyNA-80] | 804 | 817 | 0.08 | 93 | 734.9
CCCN1/C(=C/C=C2\CCCC(/C=C/C3=[N+](CCC)c4ccccc4C3(C)C)=C2N(CCC(C)(C)C)C(C)=O)C(C)(C)c2ccccc21 [CyNA-92] | 805 | 821 | 0.09 | 64 | 420.2
CCCN(C(C)=O)C1=C(/C=C/C2=[N+](CCC)c3ccccc3C2(C)C)CCC/C1=C\C=C1\N(CCC)c2ccccc2C1(C)C [CyNA-95] | 806 | 818 | 0.09 | 91 | 1027.9
CCCN1/C(=C/C=C2\CCCC(/C=C/C3=[N+](CCC)c4ccccc4C3(C)C)=C2N(CCC(c2ccccc2)c2ccccc2)C(C)=O)C(C)(C)c2ccccc21 [CyNA-100] | 804 | 819 | 0.08 | 63 | 333.8
CCCN1/C(=C/C=C2\CCCC(/C=C/C3=[N+](CCC)c4ccccc4C3(C)C)=C2N(Cc2ccccc2C)C(C)=O)C(C)(C)c2ccccc21 [CyNA-101] | 806 | 822 | 0.08 | 86 | 693.9
CCCN1/C(=C/C=C2\CCCC(/C=C/C3=[N+](CCC)c4ccccc4C3(C)C)=C2N(CCc2cccc(OC)c2)C(C)=O)C(C)(C)c2ccccc21 [CyNA-102] | 805 | 822 | 0.14 | 63 | 998.9
CCCN1/C(=C/C=C2\CCCC(/C=C/C3=[N+](CCC)c4ccccc4C3(C)C)=C2N(Cc2ccccc2OCC)C(C)=O)C(C)(C)c2ccccc21 [CyNA-103] | 804 | 821 | 0.14 | 92 | 1106.6
CCCN1/C(=C/C=C2\CCCC(/C=C/C3=[N+](CCC)c4ccccc4C3(C)C)=C2N(C(C)=O)C2CCN(Cc3ccccc3)CC2)C(C)(C)c2ccccc21 [CyNA-107] | 803 | 820 | 0.07 | 50 | 275.3
CCCN1/C(=C/C=C2\CCCC(/C=C/C3=[N+](CCC)c4ccccc4C3(C)C)=C2N(Cc2cccc(OC)c2OC)C(C)=O)C(C)(C)c2ccccc21 [CyNA-124] | 803 | 820 | 0.15 | 100 | 1334.2
CCCN1/C(=C/C=C2\CCCC(/C=C/C3=[N+](CCC)c4ccccc4C3(C)C)=C2N(CCCCc2ccccc2)C(C)=O)C(C)(C)c2ccccc21 [CyNA-131] | 804 | 819 | 0.13 |  | 259.8
CCCN1/C(=C/C=C2\CCCC(/C=C/C3=[N+](CCC)c4ccccc4C3(C)C)=C2N(CCCOCC)C(C)=O)C(C)(C)c2ccccc21 [CyNA-167] | 804 | 818 | 0.10 | 92 | 1031.8
CCCN1/C(=C/C=C2\CCCC(/C=C/C3=[N+](CCC)c4ccccc4C3(C)C)=C2N(C(C)=O)C2CCCC2)C(C)(C)c2ccccc21 [CyNA-180] | 805 | 821 | 0.14 | 91 | 991.3
CCCN1/C(=C/C=C2\CCCC(/C=C/C3=[N+](CCC)c4ccccc4C3(C)C)=C2N(Cc2ccc(OC)cc2OC)C(C)=O)C(C)(C)c2ccccc21 [CyNA-181] | 805 | 821 | 0.14 | 66 | 996.8
CCCCC(CC)COCCCN(C(C)=O)C1=C(/C=C/C2=[N+](CCC)c3ccccc3C2(C)C)CCC/C1=C\C=C1\N(CCC)c2ccccc2C1(C)C (centres unmarked) [CyNA-193] | 806 | 822 | 0.12 |  | 58.7
CCCN1/C(=C/C=C2\CCCC(/C=C/C3=[N+](CCC)c4ccccc4C3(C)C)=C2N(CCc2ccc(CC)cc2)C(C)=O)C(C)(C)c2ccccc21 [CyNA-201] | 803 | 820 | 0.08 | 33 | 52.6
CCCN1/C(=C/C=C2\CCCC(/C=C/C3=[N+](CCC)c4ccccc4C3(C)C)=C2N(Cc2ccc(F)cc2)C(C)=O)C(C)(C)c2ccccc21 [CyNA-218] | 802 | 823 | 0.08 | 85 | 549.9
CCCN1/C(=C/C=C2\CCCC(/C=C/C3=[N+](CCC)c4ccccc4C3(C)C)=C2N(C(C)=O)C2CCCCCCC2)C(C)(C)c2ccccc21 [CyNA-219] | 804 | 822 | 0.14 | 65 | 902.7
CCCN1/C(=C/C=C2\CCCC(/C=C/C3=[N+](CCC)c4ccccc4C3(C)C)=C2N(Cc2ccc(Cl)cc2)C(C)=O)C(C)(C)c2ccccc21 [CyNA-221] | 803 | 820 | 0.07 | 86 | 382.6
CCCCC(CC)CN(C(C)=O)C1=C(/C=C/C2=[N+](CCC)c3ccccc3C2(C)C)CCC/C1=C\C=C1\N(CCC)c2ccccc2C1(C)C (centres unmarked) [CyNA-230] | 805 | 822 | 0.09 | 80 | 77.7
